Experiments:
PKCα = PKCα (Homo sapiens, UniProt P17252); assay: PKCα activity, kinase assay and immunoblot; format: cell-based
Description: The immunoblots were detected with indicated antibodies. […] The kinase activity was quantified.

[1] = tested on: H929 cells and U266 cells; assay: Survival of multiple myeloma derived cells; format: cell-based
Akt = format: cell-based, human; conditions: 2 hours; trastuzumab 2 μg/ml, triciribine 2.5 μM, RAD001 0.4 nM
Protocol: Total cell lysates were collected, separated by SDS-PAGE and immunoblotted as indicated.
(§1) SDS-PAGE and Immunoblot Analysis. Cells transfected with PTEN AS/NS oligonucleotides were treated as indicated.
(§2) Phosphorylation of Akt on Thr308 and Ser473 was analyzed as an indicator of Akt activity and mTOR activity was assessed by the phosphorylation of p70S6K (70-kDa ribosomal protein S6 kinase), an mTOR target.

p70S6K = format: cell-based, human; conditions: 2 hours; trastuzumab 2 μg/ml, RAD001 0.4 nM
Protocol: Total cell lysates were collected, separated by SDS-PAGE and immunoblotted as indicated. […] The experiments were repeated at least twice to insure that results were reproducible.
as §1, §2

MCF7 cells = assay: Western blot of Akt pathway after mTOR inhibitor; format: cell-based; conditions: 24 hour time course
Protocol: The upper panels (A) show western blots of OV3 cell lysates following the treatment with 1 nM mTOR inhibitor rapamycin for the time indicated. Membranes were probed with antibodies specific to phosphorylated isoforms and to the total protein for comparison of Akt, p70S6K and FKHRL 1. The lower panels (B) illustrate western blots of MCF7 cell lysates following treatment with the mTOR inhibitor RAD001 for the time indicated. Membranes were probed with antibodies specific to phosphorylated isoforms and to the total protein for comparison of Akt and p70S6K.
OV3 and MCF7 cells were treated with the mTOR inhibitors rapamycin and RAD001, respectively, over a 24 hour time course. Lysyates were resolved by SDS-PAGE and transferred to a membrane for western blotting. Membranes were probed with antibodies to phospho-Akt, total Akt, phospho-p70S6K, and total p70S6K. Membranes with lysates derived from OV3 cells were additionally probed with antibodies to phospho-FKHRL 1 and total FKHRL 1.

## Cn1cc(C2=C(c3cn(CCCSC(=N)N)c4ccccc34)C(=O)NC2=O)c2ccccc21 [Ro 31-8220]
PKCα
  kinase activity of PKCα: inhibited

## CC(C)C[C@H](NC(=O)[C@H](Cc1ccccc1)NC(=O)c1cnccn1)B(O)O [bortezomib]
[1]
  effect of API-2 on survival of myeloma cells: synergistically enhances

## CO[C@H]1C[C@@H]2CC[C@@H](C)[C@@](O)(O2)C(=O)C(=O)N2CCCC[C@H]2C(=O)O[C@H]([C@H](C)C[C@@H]2CC[C@@H](OCCO)[C@H](OC)C2)CC(=O)[C@H](C)/C=C(\C)[C@@H](O)[C@@H](OC)C(=O)[C@H](C)C[C@H](C)/C=C/C=C/C=C/1C [RAD001, everolimus]
Akt
  phosphorylation of Akt on Thr308 and Ser473: feedback activation of Akt
p70S6K
  phosphorylation of p70S6K: dramatically blocked
MCF7 cells
  activation of Akt pathway: rapid activation of Akt pathway
